In brackets after ≈: the same amount, converted by molar mass.
Legend:
[1] = ABTS radical scavenging activity; conditions: mean ± SD (n = 3)
Method: The ABTS radical scavenging activity of the sample was carried out using the method reported by Sun et al. with minor modification. Briefly, 1.76 mL of K2S2O8 (140 mM) and 100 mL of ABTS solution (7 mM) were mixed and stored in the dark at 25°C for 12 h. […] The absorbance of a blank (Ablank) and negative control (Acontrol) composed of only the sample and diluted ABTS^+ radical solutions was also determined, respectively. The ABTS radical scavenging activity of the sample was calculated by the following equation: […] = [1 - (Asample-Ablank)/Acontrol] × 100%. Vc was used as a positive control in this experiment.

[2] = DPPH radical scavenging activity; conditions: mean ± SD (n = 3)
Method: Briefly, 150 μL of DPPH solution (dissolved 0.2 mM in methanol) was mixed with 50 μL of the sample at different concentrations. The mixture was stirred and incubated in the dark at 30°C for 30 min, and the absorbance was determined at 517 nm (Asample). The absorbance of a blank (Ablank) and negative control (Acontrol) composed of only the sample and DPPH solutions was also determined, respectively. The DPPH radical scavenging activity of the sample was calculated by the following equation: DPPHscavengingactivity = [1 − (Asample–Ablank)/Acontrol] × 100%. Vc was used as a positive control in this experiment.

IC50 ABTS assay [1]: 1.2 ± 0.1 µg/mL (≈ 6.81 µM)
IC50 DPPH assay [2]: 6.0 ± 0.2 µg/mL (≈ 34.1 µM)
SMILES: O=C1O[C@H]([C@@H](O)CO)C(O)=C1O [Vc, L-Ascorbic acid]

Reference: article PMC7700040, “Phytochemical Analysis, Anti-inflammatory, and Antioxidant Activities of Dendropanax dentiger Roots” (BioMed Research International, 2020)
